Source: patent US9750705B2, “Agents useful for treating obesity, diabetes and related disorders” (The Regents of the University of California, priority 2012, dated 2017)
Structures can show the parent of a compound that is named as a salt.

Legend:
[1] = tested on: phospho-Erk in FL83B cells; experiment: Western blot of phospho-Erk; type: cell-based, mouse; conditions: drug 1 hour, then insulin
Description: As explained above and in Example 4, Western blots of phospho-Akt and phospho-Erk are a more accurate and precise and quantitative measure of Akt phosphorylation than ICWB measurements. Insulin-dependent phospho-Akt is a direct measurement of insulin sensitivity, and we expect that Shc inhibitors will stimulate phospho-Akt more than phospho-Erk. All of the drugs listed in FIG. 5A stimulated insulin-dependent phospho-Akt at some concentration. Method. Mouse liver cells FL83B were plated at density of 400.000 cells per well of 6 well plate and cultivated for 48 hours, media was changed to DMEM, 25 mM glucose serum free and 16 hours later the cells were treated with drug at the indicated concentration for one hour. Control wells were treated with the vehicle (DMSO), in certain control wells the metabolic (Akt) insulin signaling was blocked with wortmannin. The cells were induced with indicated concentration of insulin for 10 minutes, total protein was extracted and the Western Blots were performed with indicated antibody as described above. Mouse liver cells FL83B were plated at density of 400.000 cells per well of 6 well plate and cultivated for 48 hours, media was changed to DMEM, 25 mM glucose serum free and 16 hours later the cells were treated with drug at the indicated concentration for one hour. […]

[2] = tested on: insulin-dependent activation of Akt and ERK in FL83B cells; experiment: High-throughput in-cell western blot (ICWB) screen for insulin sensitizers: insulin-dependent phospho-Akt versus phospho-Erk; type: cell-based, mouse; conditions: for rank in the insulin-sensitizer screen: screen of 1689 molecules
Description: Drugs were screened by in-cell western blot (ICWB) for their ability to stimulate phospho-Akt activation in the presence of trace or 10 nM insulin (FIG. 4A). Cells in wells were treated with drugs, and the activity (phosphorylation) of Akt was determined by a phospho-Akt specific antibody. In FIG. 4A, low insulin was given and drugs a, b, c, stimulated Akt activation. In FIG. 4B, 10 nM insulin was given and a, b, and c stimulated signaling over background, and d and e inhibited. […] Drugs were primarily screened for their ability to promote insulin-dependent stimulation of (phospho) Akt, then secondarily screened for lack of activity to stimulate (phospho) Erk, or a high Akt/Erk ratio. Such drugs are expected to cause insulin sensitivity, resistance to obesity, and longevity. Some drugs having these desired characteristics are Shc inhibitors.
FL83B cells were seeded on 384 well plates, 10,000 cells per well in F-12 media supplemented with 10% FBS and 25 mM glucose; 48 hours later the media was replaced with F-12, 25 mM glucose without FBS for sixteen hours; cells were supplemented with assigned drug at desired concentration for 1 hour in duplicate and then, the cells were stimulated with desired concentration of insulin for ten minutes for Akt activation and fifteen minutes for ERK activation measurements. After that time the media was removed and replaced with fixing solution of 5% Formaldehyde in PBS, pH=7.4, 30 minutes later, the fixing solution was replaced with the permeabilization buffer, 0.1% triton X100 in PBS for 40 minutes. […] After the incubation with the secondary antibodies for one hour at room temperature, the wells were washed again two times with the 0.1% tween-20 in PBS and scanned on the Li-Cor Odyssey infrared scanner; images were analyzed with the Li-Cor Odyssey software. […] Phospho-Akt, Phospho-ERK signals than were normalized by tubulin signals in each well and the densitometric results were analyzed to identify drugs which improved metabolic insulin sensitivity without inducing the mitogenic ERK activation. […]

[3] = tested on: phospho-Akt in FL83B cells; experiment: Western blot of insulin-dependent phospho-Akt; type: cell-based, mouse; conditions: for insulin-dependent phospho-Akt (P-Akt) signaling/activation: drug 1 hour, insulin 10 minutes
Description: As explained above and in Example 4, Western blots of phospho-Akt and phospho-Erk are a more accurate and precise and quantitative measure of Akt phosphorylation than ICWB measurements. Insulin-dependent phospho-Akt is a direct measurement of insulin sensitivity, and we expect that Shc inhibitors will stimulate phospho-Akt more than phospho-Erk. All of the drugs listed in FIG. 5A stimulated insulin-dependent phospho-Akt at some concentration. Method. Mouse liver cells FL83B were plated at density of 400.000 cells per well of 6 well plate and cultivated for 48 hours, media was changed to DMEM, 25 mM glucose serum free and 16 hours later the cells were treated with drug at the indicated concentration for one hour. Control wells were treated with the vehicle (DMSO), in certain control wells the metabolic (Akt) insulin signaling was blocked with wortmannin. The cells were induced with indicated concentration of insulin for 10 minutes, total protein was extracted and the Western Blots were performed with indicated antibody as described above. […]

[4] = Insulin tolerance test (ITT) in mice; type: in vivo
phospho-Shc = experiment: Western blot of phospho-Shc (Shc activation); type: cell-based; conditions: dose response
Description: Assays to identify compounds useful for preventing, reducing, delaying or inhibiting symptoms of impaired insulin sensitivity, glucose intolerance or obesity can be performed in vitro. Candidate agents can be contacted with a population of test cells in the presence of insulin (e.g., 1 nM, 5 nM, 10 nM, 100 nM or more). An agent that prevents, reduces, delays or inhibits one or more symptoms of impaired insulin sensitivity, glucose intolerance or obesity increases the ratio of levels of phospho-Akt-1 over phospho-Erk relative to a control ratio. The increase in ratio of levels of phospho-Akt-1 over phospho-Erk can be determined in comparison to a control population of cells that have not been contacted with insulin or have been contacted with a low concentration of insulin (e.g., less than 0.1 nM) or a population of cells contacted with insulin but not with the compound under test. Ratio of levels of phospho-Akt-1 over phospho-Erk can be determined using a Western blot among other methods. Inhibition of Shc activity can be quantitatively measured by assaying the reduction of stimulatory Shc phosphorylation, using a phospho-Shc specific antibody. Inhibition of Shc expression can be measured using a Western blot. […]

[5] = Basal blood glucose in mice after daily drug administration; type: in vivo; conditions: 2.5 mg/kg I.P. for 4 days
Description: Groups of age/sex matched mice of Control and ShcKO genotypes were food deprived for four hours and challenged with I.P. injection of insulin, and glucose concentration was determined in blood exactly at indicated time-points. Decrease and recovery of blood glucose was calculated as a % of basal level (the time-point before insulin injection). Basal levels of glucose were measured in triplicate for each mouse. For the GTT, the same groups of mice were fasted during fourteen hours and challenged with glucose injection I.P., analogously the blood glucose concentrations were measured.
Groups of mice, ten for the experimental drug treatment and 14 for the placebo treatment were subject for I.P. administration of a drug or placebo solutions daily during four days. Acarbose, a known drug which decreases blood glucose concentration was used as a control. The insulin tolerance test, ITT was performed on the mice as described previously, in Example 2.

| Structure (SMILES) | Erk activation [1] | rank in the insulin-sensitizer screen [2] | P-Akt/P-Erk ratio ([3]; Western blot) | insulin-dependent phospho-Akt (P-Akt) signaling/activation [3] | insulin sensitivity in-vivo (ITT) ([4]; 2.5 mg/kg I.P. for 4 days) | phospho-Shc (Shc activation) (phospho-Shc) | basal blood glucose [5] | P-Akt/P-Erk ratio in the primary screen ([2]; ICWB, FL83B cells) | insulin sensitivity in vivo (ITT) ([4]; PO, 20 and 50 mg/kg) |
| --- | --- | --- | --- | --- | --- | --- | --- | --- | --- |
| COc1cc2ncnc(Nc3ccc(Oc4ccccc4)cc3)c2cc1OC [Src I-1] | decreased Erk activation | top 35 out of 1689 | increasing the P-Akt/P-Erk ratio | stimulates insulin-dependent P-Akt signaling | increased insulin sensitivity in-vivo | inhibited phospho-Shc activation in dose-dependent manner | significantly decreased basal blood glucose | – | – |
| COC1=C(OC)C(=O)C(CCCCCCCCCCO)=C(C)C1=O [idebenone] | – | – | – | increased insulin-dependent phospho-Akt activation in a dose-dependent manner | – | decreased phospho-Shc in a dose-dependent manner | – | increased P-Akt/P-Erk ratio | increased insulin sensitivity in vivo |
| CN(C)C(=N)N=C(N)N [metformin, metformin hydrochloride] | – | top 35 out of 1689 | – | – | – | – | – | – | – |
